Tested on: 616215-338-R-J1-PDC tumor spheroids, viability
Test: Anticancer human tumor 616215-338-R-J1-PDC patient-derived colon adenocarcinoma cell line growth inhibition [GQUAD]
Details: spheroids with HUVEC and MSC; for IC50: curve of first compound; for viability, T/C: stronger effect = lower value
Method in brief: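 Viability of tumor cells grown as complex spheroids with endothelial and stromal cells, exposed to drug combinations. Top concentration at or near clinical Cmax (else 10 microM), diluted in half-log increments.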

[1] = second compound 0.0316 µM, first compound 0.0316 µM
[2] = second compound 0.0316 µM, first compound 0.1 µM
[3] = second compound 0.0316 µM, first compound 0.316 µM
[4] = second compound 0.0316 µM, first compound 1 µM
[5] = second compound 0.0316 µM, first compound 3.16 µM
[6] = second compound 0.0316 µM, first compound 10 µM
[7] = second compound 0.1 µM, first compound 0.0316 µM
[8] = second compound 0.1 µM, first compound 0.1 µM
[9] = second compound 0.1 µM, first compound 0.316 µM
[10] = second compound 0.1 µM, first compound 1 µM
[11] = second compound 0.1 µM, first compound 3.16 µM
[12] = second compound 0.1 µM, first compound 10 µM
[13] = second compound 0.316 µM, first compound 0.0316 µM
[14] = second compound 0.316 µM, first compound 0.1 µM
[15] = second compound 0.316 µM, first compound 0.316 µM
[16] = second compound 0.316 µM, first compound 1 µM
[17] = second compound 0.316 µM, first compound 3.16 µM
[18] = second compound 0.316 µM, first compound 10 µM
[19] = second compound 1 µM, first compound 0.0316 µM
[20] = second compound 1 µM, first compound 0.1 µM
[21] = second compound 1 µM, first compound 0.316 µM
[22] = second compound 1 µM, first compound 1 µM
[23] = second compound 1 µM, first compound 3.16 µM
[24] = second compound 1 µM, first compound 10 µM
[25] = second compound 3.16 µM, first compound 0.0316 µM
[26] = second compound 3.16 µM, first compound 0.1 µM
[27] = second compound 3.16 µM, first compound 0.316 µM
[28] = second compound 3.16 µM, first compound 1 µM
[29] = second compound 3.16 µM, first compound 3.16 µM
[30] = second compound 3.16 µM, first compound 10 µM
[31] = second compound 10 µM, first compound 0.0316 µM
[32] = second compound 10 µM, first compound 0.1 µM
[33] = second compound 10 µM, first compound 0.316 µM
[34] = second compound 10 µM, first compound 1 µM
[35] = second compound 10 µM, first compound 3.16 µM
[36] = second compound 10 µM, first compound 10 µM
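Also: spheroids exposed to agents for 7 days before readout.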
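For viability, T/C in this document: percent viability relative to DMSO vehicle control wells taken as 100%.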

C=CCn1c(=O)c2cnc(Nc3ccc(N4CCN(C)CC4)cc3)nc2n1-c1cccc(C(C)(C)O)n1 + Cc1[nH]c2ccc(F)cc2c1-c1nc2c3cccnc3c3ncccc3c2[nH]1
IC50 (second compound 0.0316 µM): 330 nM | IC50 (second compound 0.1 µM): 352 nM | IC50 (second compound 0.316 µM): 315 nM | IC50 (second compound 1 µM): 342 nM | IC50 (second compound 3.16 µM): 256 nM | IC50 (second compound 10 µM): 227 nM | viability, T/C [1]: 95.5% | viability, T/C [2]: 90.1% | viability, T/C [3]: 48.3% | viability, T/C [4]: 25.4% | viability, T/C [5]: 12.4% | viability, T/C [6]: 12.2% | viability, T/C [7]: 97.4% | viability, T/C [8]: 99.9% | viability, T/C [9]: 50.6% | viability, T/C [10]: 28.4% | viability, T/C [11]: 17.9% | viability, T/C [12]: 11.9% | viability, T/C [13]: 106% | viability, T/C [14]: 99.6% | viability, T/C [15]: 47.5% | viability, T/C [16]: 25.4% | viability, T/C [17]: 12.9% | viability, T/C [18]: 12.4% | viability, T/C [19]: 103% | viability, T/C [20]: 104% | viability, T/C [21]: 52% | viability, T/C [22]: 18.6% | viability, T/C [23]: 14.2% | viability, T/C [24]: 9.69% | viability, T/C [25]: 98.4% | viability, T/C [26]: 87.7% | viability, T/C [27]: 40.9% | viability, T/C [28]: 15.8% | viability, T/C [29]: 11.1% | viability, T/C [30]: 6.8% | viability, T/C [31]: 95.3% | viability, T/C [32]: 88.3% | viability, T/C [33]: 34% | viability, T/C [34]: 17.9% | viability, T/C [35]: 11.2% | viability, T/C [36]: 6.71%

COc1ncnc(C2CC2)c1-c1ncc2cnn(Cc3ccc(-c4nc(C(F)(F)F)cn4C(C)C)cc3)c2n1 + Cc1[nH]c2ccc(F)cc2c1-c1nc2c3cccnc3c3ncccc3c2[nH]1
IC50 (second compound 0.0316 µM): > 10000 nM | IC50 (second compound 0.1 µM): > 10000 nM | IC50 (second compound 0.316 µM): > 10000 nM | IC50 (second compound 1 µM): > 10000 nM | IC50 (second compound 3.16 µM): > 10000 nM | IC50 (second compound 10 µM): > 10000 nM | viability, T/C [1]: 109% | viability, T/C [2]: 98.5% | viability, T/C [3]: 106% | viability, T/C [4]: 91.9% | viability, T/C [5]: 106% | viability, T/C [6]: 101% | viability, T/C [7]: 108% | viability, T/C [8]: 93.7% | viability, T/C [9]: 96.1% | viability, T/C [10]: 98.2% | viability, T/C [11]: 100% | viability, T/C [12]: 105% | viability, T/C [13]: 106% | viability, T/C [14]: 96.3% | viability, T/C [15]: 96.5% | viability, T/C [16]: 99.8% | viability, T/C [17]: 103% | viability, T/C [18]: 107% | viability, T/C [19]: 100% | viability, T/C [20]: 97.9% | viability, T/C [21]: 96.5% | viability, T/C [22]: 101% | viability, T/C [23]: 108% | viability, T/C [24]: 99.8% | viability, T/C [25]: 101% | viability, T/C [26]: 104% | viability, T/C [27]: 94.7% | viability, T/C [28]: 105% | viability, T/C [29]: 109% | viability, T/C [30]: 104% | viability, T/C [31]: 97% | viability, T/C [32]: 90.1% | viability, T/C [33]: 98.4% | viability, T/C [34]: 98.4% | viability, T/C [35]: 98.7% | viability, T/C [36]: 96.3%

CCCS(=O)(=O)Nc1ccc(F)c(C(=O)c2c[nH]c3ncc(-c4ccc(Cl)cc4)cc23)c1F + CN(C)c1ccc(Nc2c3ccc(NC(=O)CCN4CCCC4)cc3nc3cc(NC(=O)CCN4CCCC4)ccc23)cc1
IC50 (second compound 0.0316 µM): 5560 nM | IC50 (second compound 0.1 µM): 5390 nM | IC50 (second compound 0.316 µM): 5390 nM | IC50 (second compound 1 µM): 5910 nM | IC50 (second compound 3.16 µM): 5180 nM | IC50 (second compound 10 µM): 3790 nM | viability, T/C [1]: 103% | viability, T/C [2]: 110% | viability, T/C [3]: 108% | viability, T/C [4]: 105% | viability, T/C [5]: 94.3% | viability, T/C [6]: 3.74% | viability, T/C [7]: 101% | viability, T/C [8]: 92.6% | viability, T/C [9]: 112% | viability, T/C [10]: 94.6% | viability, T/C [11]: 89.8% | viability, T/C [12]: 3.81% | viability, T/C [13]: 105% | viability, T/C [14]: 96.5% | viability, T/C [15]: 99.7% | viability, T/C [16]: 92% | viability, T/C [17]: 89.3% | viability, T/C [18]: 4.92% | viability, T/C [19]: 112% | viability, T/C [20]: 88.7% | viability, T/C [21]: 89.1% | viability, T/C [22]: 100% | viability, T/C [23]: 97.3% | viability, T/C [24]: 10.3% | viability, T/C [25]: 101% | viability, T/C [26]: 99.4% | viability, T/C [27]: 105% | viability, T/C [28]: 85.4% | viability, T/C [29]: 84.9% | viability, T/C [30]: 7.85% | viability, T/C [31]: 88.9% | viability, T/C [32]: 73.8% | viability, T/C [33]: 94% | viability, T/C [34]: 88% | viability, T/C [35]: 58.4% | viability, T/C [36]: 5.74%

CC1COCCN1c1cc(C2(S(C)(=N)=O)CC2)nc(-c2ccnc3[nH]ccc23)n1 (stereo not drawn) + Cc1cnc(CNC(=O)c2c(=O)c3ccc(N4CCCN(C)CC4)nc3n3c2sc2ccccc23)cn1
IC50 (second compound 0.0316 µM): 2380 nM | IC50 (second compound 0.1 µM): 1070 nM | IC50 (second compound 0.316 µM): 45.3 nM | IC50 (second compound 1 µM): < 31.6 nM | IC50 (second compound 3.16 µM): < 31.6 nM | IC50 (second compound 10 µM): < 31.6 nM | viability, T/C [1]: 97.6% | viability, T/C [2]: 97.4% | viability, T/C [3]: 94.5% | viability, T/C [4]: 83.7% | viability, T/C [5]: 38.8% | viability, T/C [6]: 31.4% | viability, T/C [7]: 72.5% | viability, T/C [8]: 73.4% | viability, T/C [9]: 70% | viability, T/C [10]: 51.2% | viability, T/C [11]: 33.6% | viability, T/C [12]: 32.6% | viability, T/C [13]: 53.5% | viability, T/C [14]: 43.2% | viability, T/C [15]: 44.1% | viability, T/C [16]: 42.1% | viability, T/C [17]: 33.7% | viability, T/C [18]: 28.2% | viability, T/C [19]: 38.3% | viability, T/C [20]: 40.9% | viability, T/C [21]: 32% | viability, T/C [22]: 26.7% | viability, T/C [23]: 27.7% | viability, T/C [24]: 21.5% | viability, T/C [25]: 21.9% | viability, T/C [26]: 30.2% | viability, T/C [27]: 31.6% | viability, T/C [28]: 30.2% | viability, T/C [29]: 40.4% | viability, T/C [30]: 30% | viability, T/C [31]: 25.1% | viability, T/C [32]: 27.1% | viability, T/C [33]: 29.9% | viability, T/C [34]: 22.4% | viability, T/C [35]: 19.6% | viability, T/C [36]: 17.5%
